Laboratory results: patent US8415469B2, “Compounds and methods for kinase modulation, and indications therefor” (Plexxikon Inc., priority 2005, dated 2013)

Experiments:
Assay type in all cases: biochemical
Jnk3 = target: T1, Jnk3 (Homo sapiens, UniProt P53779); assay: AlphaScreen kinase assay, Jnk3; conditions: read-out: IC50, activity toward kinase Jnk3
T1 construct: purchased Upstate Biotechnology

Fak = target: T2, Fak (Homo sapiens, UniProt Q05397); assay: AlphaScreen kinase assay, Fak; conditions: read-out: IC50, activity toward kinase Fak
T2 construct: P1358.pFastBacHtb FAK S411-Q686-X; His6 with pFastBacHTb leader (TEV site) (N); made in house; host or cells: Sf9 (baculovirus)
T2 sequence (Q05397 411-686): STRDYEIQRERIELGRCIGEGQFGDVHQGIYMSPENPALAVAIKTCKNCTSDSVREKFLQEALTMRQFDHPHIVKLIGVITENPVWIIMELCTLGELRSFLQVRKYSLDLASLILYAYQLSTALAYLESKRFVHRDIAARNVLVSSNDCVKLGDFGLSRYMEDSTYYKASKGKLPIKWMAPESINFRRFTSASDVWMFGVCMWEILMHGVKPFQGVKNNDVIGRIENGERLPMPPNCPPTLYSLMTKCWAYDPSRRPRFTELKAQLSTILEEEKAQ

Fms = target: T3, Fms (Homo sapiens, UniProt P07333); assay: AlphaScreen kinase assay, Fms; conditions: read-out: IC50, activity toward kinase Fms
T3 construct: purchased Upstate Biotechnology
T3 sequence (P07333 20-972): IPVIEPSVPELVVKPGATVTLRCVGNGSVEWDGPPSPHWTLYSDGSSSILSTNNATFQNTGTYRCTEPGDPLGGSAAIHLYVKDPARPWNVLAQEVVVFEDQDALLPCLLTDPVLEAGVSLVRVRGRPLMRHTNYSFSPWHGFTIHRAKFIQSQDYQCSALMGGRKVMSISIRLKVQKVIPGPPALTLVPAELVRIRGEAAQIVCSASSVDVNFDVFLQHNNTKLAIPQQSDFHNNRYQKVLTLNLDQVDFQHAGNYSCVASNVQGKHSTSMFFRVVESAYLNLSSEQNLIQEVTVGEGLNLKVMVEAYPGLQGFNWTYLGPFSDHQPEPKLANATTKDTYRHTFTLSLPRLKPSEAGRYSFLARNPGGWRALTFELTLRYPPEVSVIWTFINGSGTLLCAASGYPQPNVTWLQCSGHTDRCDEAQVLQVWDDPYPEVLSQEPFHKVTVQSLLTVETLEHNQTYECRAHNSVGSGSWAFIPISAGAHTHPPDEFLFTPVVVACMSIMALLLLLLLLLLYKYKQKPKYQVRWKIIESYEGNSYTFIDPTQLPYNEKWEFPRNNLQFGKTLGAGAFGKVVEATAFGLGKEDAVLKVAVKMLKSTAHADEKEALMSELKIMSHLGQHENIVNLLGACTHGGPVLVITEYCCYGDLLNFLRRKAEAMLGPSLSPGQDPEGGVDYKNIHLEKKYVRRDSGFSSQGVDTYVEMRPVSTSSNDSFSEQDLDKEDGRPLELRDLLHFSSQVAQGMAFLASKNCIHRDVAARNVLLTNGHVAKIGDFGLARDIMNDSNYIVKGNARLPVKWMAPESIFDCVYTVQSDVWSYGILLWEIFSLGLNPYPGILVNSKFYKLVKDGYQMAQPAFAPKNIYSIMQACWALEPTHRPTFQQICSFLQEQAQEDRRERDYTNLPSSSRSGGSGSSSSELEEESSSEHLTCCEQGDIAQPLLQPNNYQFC

Jnk1 = target: T4, Jnk1 (Homo sapiens, UniProt P45983); assay: AlphaScreen kinase assay, Jnk1; conditions: read-out: IC50, activity toward kinase Jnk1
T4 construct: purchased Upstate Biotechnology
T4 sequence (P45983 whole entry): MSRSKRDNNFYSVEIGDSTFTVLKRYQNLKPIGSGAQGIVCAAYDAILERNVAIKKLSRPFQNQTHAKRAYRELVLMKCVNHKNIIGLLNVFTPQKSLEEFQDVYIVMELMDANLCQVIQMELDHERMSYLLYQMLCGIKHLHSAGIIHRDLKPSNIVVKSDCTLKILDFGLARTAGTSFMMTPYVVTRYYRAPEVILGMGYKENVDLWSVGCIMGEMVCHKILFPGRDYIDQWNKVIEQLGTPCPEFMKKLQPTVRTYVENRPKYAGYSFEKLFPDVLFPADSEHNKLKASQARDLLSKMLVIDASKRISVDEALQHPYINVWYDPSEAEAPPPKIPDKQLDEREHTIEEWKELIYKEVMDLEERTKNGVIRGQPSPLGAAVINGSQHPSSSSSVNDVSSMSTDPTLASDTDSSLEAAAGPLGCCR

Kit = target: T5, Kit (Homo sapiens, UniProt P10721); assay: AlphaScreen kinase assay, Kit; conditions: read-out: IC50, activity toward kinase Kit
T5 construct: P1332.N6 BI PTP KIT M552-K948-X COD; His6 (N); made in house; host or cells: E. coli (PTP1B co-expressed)

B-Raf = target: T6, B-Raf (Homo sapiens, UniProt P15056); assay: AlphaScreen kinase assay, B-Raf; conditions: read-out: IC50, activity toward kinase B-Raf
T6 construct: purchased Upstate Biotechnology
T6 sequence (P15056 whole entry): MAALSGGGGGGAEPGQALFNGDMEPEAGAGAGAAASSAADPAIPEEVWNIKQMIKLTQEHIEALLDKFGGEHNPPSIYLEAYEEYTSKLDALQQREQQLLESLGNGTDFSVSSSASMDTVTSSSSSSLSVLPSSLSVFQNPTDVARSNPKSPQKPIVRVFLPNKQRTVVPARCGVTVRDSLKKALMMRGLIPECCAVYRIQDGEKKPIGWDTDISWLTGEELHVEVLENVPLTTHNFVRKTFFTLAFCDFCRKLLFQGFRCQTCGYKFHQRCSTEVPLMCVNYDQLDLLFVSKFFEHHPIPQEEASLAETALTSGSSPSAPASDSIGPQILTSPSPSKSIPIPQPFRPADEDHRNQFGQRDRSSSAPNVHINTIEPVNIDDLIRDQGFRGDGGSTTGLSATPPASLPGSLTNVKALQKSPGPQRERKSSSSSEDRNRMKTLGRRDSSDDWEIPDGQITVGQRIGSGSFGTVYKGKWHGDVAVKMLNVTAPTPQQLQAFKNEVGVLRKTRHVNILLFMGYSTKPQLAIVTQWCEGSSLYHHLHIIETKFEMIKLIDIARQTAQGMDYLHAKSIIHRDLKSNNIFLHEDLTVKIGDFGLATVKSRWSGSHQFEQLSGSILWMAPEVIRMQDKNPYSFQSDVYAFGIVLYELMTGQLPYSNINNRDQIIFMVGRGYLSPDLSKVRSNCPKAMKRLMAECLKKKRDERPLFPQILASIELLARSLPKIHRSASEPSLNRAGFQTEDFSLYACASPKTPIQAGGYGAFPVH

FGFR1 = target: T7, FGFR1 (Homo sapiens, UniProt P11362, C488A/C584S); assay: AlphaScreen kinase assay, FGFR1; conditions: read-out: IC50, activity toward kinase FGFR
T7 construct: P1351.pET N6 BI-PTP FGFR A458-E765-X C488A, C584S; made in house; host or cells: E. coli (PTP1B co-expressed)
T7 sequence (P11362 458-765 C488A/C584S): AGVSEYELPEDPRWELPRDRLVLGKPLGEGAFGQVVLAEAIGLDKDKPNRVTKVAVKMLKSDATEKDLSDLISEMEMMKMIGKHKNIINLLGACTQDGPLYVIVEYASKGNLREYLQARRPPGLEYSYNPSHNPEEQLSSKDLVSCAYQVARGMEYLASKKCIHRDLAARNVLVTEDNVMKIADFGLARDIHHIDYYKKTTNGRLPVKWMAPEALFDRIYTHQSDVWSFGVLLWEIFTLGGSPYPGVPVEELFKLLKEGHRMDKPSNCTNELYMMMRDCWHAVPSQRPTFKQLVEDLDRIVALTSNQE

c-Raf-1 = target: T8, c-Raf-1 (Homo sapiens, UniProt P04049); assay: AlphaScreen kinase assay, c-Raf-1; conditions: read-out: IC50, activity toward kinase c-Raf-1
T8 construct: purchased Upstate Biotechnology
T8 sequence (P04049 whole entry): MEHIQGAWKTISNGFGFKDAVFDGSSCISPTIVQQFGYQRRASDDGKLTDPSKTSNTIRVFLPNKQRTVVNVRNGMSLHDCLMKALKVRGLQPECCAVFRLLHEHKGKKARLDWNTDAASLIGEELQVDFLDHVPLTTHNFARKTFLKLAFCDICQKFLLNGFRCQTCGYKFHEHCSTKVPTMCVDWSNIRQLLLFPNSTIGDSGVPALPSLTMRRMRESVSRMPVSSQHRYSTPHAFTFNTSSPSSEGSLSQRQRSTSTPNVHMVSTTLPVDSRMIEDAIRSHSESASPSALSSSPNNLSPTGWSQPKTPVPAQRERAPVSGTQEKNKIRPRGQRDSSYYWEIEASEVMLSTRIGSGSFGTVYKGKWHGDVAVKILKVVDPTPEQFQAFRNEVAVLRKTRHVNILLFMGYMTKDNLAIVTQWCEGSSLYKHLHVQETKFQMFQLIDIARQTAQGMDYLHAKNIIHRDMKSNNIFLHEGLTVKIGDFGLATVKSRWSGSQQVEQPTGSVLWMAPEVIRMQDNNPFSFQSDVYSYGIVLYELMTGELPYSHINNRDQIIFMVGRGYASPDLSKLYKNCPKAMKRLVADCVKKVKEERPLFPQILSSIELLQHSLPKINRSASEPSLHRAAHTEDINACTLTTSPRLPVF

B-Raf V600E = target: T9, B-Raf V600E (Homo sapiens, UniProt P15056, V600E); assay: AlphaScreen kinase assay, B-Raf V600E; conditions: read-out: IC50, activity toward kinase B-Raf V600E
T9 construct: P4254. pFastBacBD-CDC37 BRAF D437-K722-X, V600E; His6 with pFastBac HT leader (TEV site) (N); made in house; host or cells: Sf9 (baculovirus; chaperone CDC37 co-expressed)
T9 sequence (P15056 with tags, fused parts or gaps V600E): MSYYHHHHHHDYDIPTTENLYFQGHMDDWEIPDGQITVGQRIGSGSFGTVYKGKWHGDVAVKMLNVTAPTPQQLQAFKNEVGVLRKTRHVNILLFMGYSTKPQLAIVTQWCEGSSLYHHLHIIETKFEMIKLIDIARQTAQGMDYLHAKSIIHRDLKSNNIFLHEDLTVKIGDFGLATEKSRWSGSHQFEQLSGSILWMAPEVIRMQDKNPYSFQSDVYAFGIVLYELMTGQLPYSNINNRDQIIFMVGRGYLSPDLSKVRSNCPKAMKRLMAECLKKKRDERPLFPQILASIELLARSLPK

Src = target: T10, Src (Homo sapiens, UniProt P12931); assay: AlphaScreen kinase assay, Src; conditions: read-out: IC50, activity toward kinase Src
T10 construct: P1144. pET-N6 BI-PTP SRC V86-L536-X; made in house
T10 sequence (P12931 with tags, fused parts or gaps): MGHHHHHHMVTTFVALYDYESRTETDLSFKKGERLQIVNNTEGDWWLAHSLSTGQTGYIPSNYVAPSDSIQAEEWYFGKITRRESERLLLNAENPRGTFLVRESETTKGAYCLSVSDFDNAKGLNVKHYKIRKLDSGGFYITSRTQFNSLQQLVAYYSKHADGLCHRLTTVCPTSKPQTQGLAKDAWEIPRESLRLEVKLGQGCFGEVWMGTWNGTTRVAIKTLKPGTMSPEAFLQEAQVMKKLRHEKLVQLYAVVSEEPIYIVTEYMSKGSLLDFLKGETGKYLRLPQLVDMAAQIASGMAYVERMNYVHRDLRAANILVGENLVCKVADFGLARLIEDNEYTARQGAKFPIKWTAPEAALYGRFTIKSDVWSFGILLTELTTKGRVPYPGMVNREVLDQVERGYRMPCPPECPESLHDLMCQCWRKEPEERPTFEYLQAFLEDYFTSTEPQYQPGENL

Ret = target: T11, Ret (Homo sapiens, UniProt P07949); assay: AlphaScreen kinase assay, Ret; conditions: read-out: IC50, activity toward kinase Ret
T11 construct: P1378.pET-SF BI-PTP RET H661-R1012 HIS; made in house
T11 sequence (P07949 with tags, fused parts or gaps): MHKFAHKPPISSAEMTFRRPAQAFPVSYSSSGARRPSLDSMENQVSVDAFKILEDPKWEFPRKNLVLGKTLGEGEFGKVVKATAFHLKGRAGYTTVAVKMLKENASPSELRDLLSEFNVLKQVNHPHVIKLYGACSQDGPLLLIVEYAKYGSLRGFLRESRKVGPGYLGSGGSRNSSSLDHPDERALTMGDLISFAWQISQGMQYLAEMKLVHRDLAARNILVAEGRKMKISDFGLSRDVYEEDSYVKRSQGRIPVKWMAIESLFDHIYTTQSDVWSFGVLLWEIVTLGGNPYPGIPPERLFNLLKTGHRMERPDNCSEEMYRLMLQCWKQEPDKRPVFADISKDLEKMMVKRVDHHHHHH

Kdr = target: T12, Kdr (Homo sapiens, UniProt P35968); assay: Z'-Lyte FRET kinase assay (Invitrogen), Kdr; conditions: read-out: IC50, activity toward kinase Kdr
T12 construct: purchased Invitrogen (assay run by Invitrogen)

Flt1 = target: T13, Flt1 (Homo sapiens, UniProt P17948); assay: AlphaScreen kinase assay, Flt1; conditions: read-out: IC50, activity toward kinase Flt1
T13 construct: P1826.pETN6 BI-PTP FLT1 M799-D1165-X WT; His6 (N); made in house; host or cells: E. coli (PTP1B co-expressed)
T13 sequence (P17948 with tags, fused parts or gaps): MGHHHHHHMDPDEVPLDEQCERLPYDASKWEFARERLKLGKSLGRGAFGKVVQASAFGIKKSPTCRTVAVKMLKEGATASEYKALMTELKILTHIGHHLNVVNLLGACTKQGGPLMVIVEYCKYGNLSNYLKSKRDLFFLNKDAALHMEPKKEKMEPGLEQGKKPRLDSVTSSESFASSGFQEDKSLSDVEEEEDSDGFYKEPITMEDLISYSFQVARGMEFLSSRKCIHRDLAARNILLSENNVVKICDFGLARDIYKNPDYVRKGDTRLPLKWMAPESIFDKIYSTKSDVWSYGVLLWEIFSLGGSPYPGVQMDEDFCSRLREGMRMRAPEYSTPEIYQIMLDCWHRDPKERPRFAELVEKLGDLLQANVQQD

Measured: IC50

T1 sequence (P53779 whole entry): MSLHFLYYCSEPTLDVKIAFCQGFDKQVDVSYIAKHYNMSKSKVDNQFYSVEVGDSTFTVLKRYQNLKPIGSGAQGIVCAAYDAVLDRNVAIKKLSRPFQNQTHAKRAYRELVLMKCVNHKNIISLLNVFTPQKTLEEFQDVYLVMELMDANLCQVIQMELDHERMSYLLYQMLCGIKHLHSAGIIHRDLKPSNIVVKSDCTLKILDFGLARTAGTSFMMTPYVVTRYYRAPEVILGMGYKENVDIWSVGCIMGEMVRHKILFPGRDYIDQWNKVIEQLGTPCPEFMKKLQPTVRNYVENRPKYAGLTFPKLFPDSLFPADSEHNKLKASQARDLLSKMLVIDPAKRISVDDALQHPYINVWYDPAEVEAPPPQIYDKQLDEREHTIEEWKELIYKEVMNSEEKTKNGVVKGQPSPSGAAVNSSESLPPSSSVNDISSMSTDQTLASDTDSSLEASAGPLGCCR

CN(c1ccc(F)c(C(O)c2c[nH]c3ncc(-c4cccnc4)cc23)c1F)S(=O)(=O)c1ccc(C(F)(F)F)cc1 (stereo not drawn) [Compound P-1400]
≤ 10 µM: Jnk3 | Fak | Fms | Jnk1 | Kit

NS(=O)(=O)c1cccc(Nc2c[nH]c3ncccc23)c1 [Compound P-1500, 3-(1H-Pyrrolo[2,3-b]pyridin-3-ylamino)-benzenesulfonamide]
≤ 10 µM: Fak | Fms | Kit

COCCOc1ccc(F)c(C(=O)c2c[nH]c3ncc(-c4cccnc4)cc23)c1F [Compound P-1456, [2,6-Difluoro-3-(2-methoxy-ethoxy)-phenyl]-(5-pyridin-3-yl-1H-pyrrolo[2,3-b]pyridin-3-yl)-methanone]
not listed: Jnk3 | Src | Ret | Kdr | Flt1
≤ 10 µM: all other assays above

COCCOc1ccc(F)c(C(O)c2c[nH]c3ncc(Br)cc23)c1F (stereo not drawn) [Compound P-1452]
≤ 10 µM: Fak | Fms | B-Raf | FGFR1 | c-Raf-1 | B-Raf V600E | Kit

Cc1cccc(C)c1Cc1c[nH]c2ncccc12 [Compound P-0333, 3-(2,6-Dimethyl-benzyl)-1H-pyrrolo[2,3-b]pyridine]
≤ 10 µM: Fak | Fms | B-Raf V600E | Kit

Brc1cnc2[nH]cc(Cc3ccc4c(c3)OCCO4)c2c1 [Compound P-1474, 5-Bromo-3-(2,3-dihydro-benzo[1,4]dioxin-6-ylmethyl)-1H-pyrrolo[2,3-b]pyridine]
≤ 10 µM: Fak | Fms | FGFR1 | B-Raf V600E | Kit

CCCCS(=O)(=O)Nc1ccc(F)c(C(=O)c2c[nH]c3ncc(OC)cc23)c1F [Compound P-1264, Butane-1-sulfonic acid [2,4-difluoro-3-(5-methoxy-1H-pyrrolo[2,3-b]pyridine-3-carbonyl)-phenyl]-amide]
≤ 10 µM: Fak | Fms | B-Raf | FGFR1 | B-Raf V600E | Kit | Src

COc1ccc(Cc2c[nH]c3ncc(-c4cccc(C(N)=O)c4)cc23)c(F)c1 [Compound P-1341]
≤ 10 µM: Fak | Fms | B-Raf | FGFR1 | B-Raf V600E | Kit

O=C(c1ccccc1F)c1c[nH]c2ncc(Br)cc12 [Compound P-0293]
not listed: Jnk3 | Jnk1 | c-Raf-1 | Src | Flt1
≤ 10 µM: all other assays above

Clc1cc(Cl)cc(Nc2c[nH]c3ncccc23)c1 [Compound P-1502, (3,5-Dichloro-phenyl)-(1H-pyrrolo[2,3-b]pyridin-3-yl)-amine]
≤ 10 µM: Fak | Fms | Flt1 | Kit

Clc1cccc(Cl)c1Cc1c[nH]c2ncc(-c3cccnc3)cc12 [Compound P-1478, 3-(2,6-Dichloro-benzyl)-5-pyridin-3-yl-1H-pyrrolo[2,3-b]pyridine]
≤ 10 µM: Fak | Fms | FGFR1 | B-Raf V600E | Kit | Src

COCCOc1ccc(F)c(Cc2c[nH]c3ncc(-c4cccnc4)cc23)c1F [Compound P-1458]
not listed: Src | Ret | Kdr | Flt1
≤ 10 µM: all other assays above

CCCCS(=O)(=O)Nc1ccc(F)c(C(=O)c2c[nH]c3ncc(Br)cc23)c1F [Compound P-1263, Butane-1-sulfonic acid [3-(5-bromo-1H-pyrrolo[2,3-b]pyridine-3-carbonyl)-2,4-difluoro-phenyl]-amide]
≤ 10 µM: Fak | Fms | B-Raf | FGFR1 | B-Raf V600E | Kit | Src

COc1cccc(Cc2c[nH]c3ncc(-c4ccccc4)cc23)c1F [Compound P-1323, 3-(2-Fluoro-3-methoxy-benzyl)-5-phenyl-1H-pyrrolo[2,3-b]pyridine]
≤ 10 µM: Fak | Fms | FGFR1 | B-Raf V600E | Kit

FC(F)(F)Oc1ccc(Nc2c[nH]c3ncccc23)cc1 [Compound P-1492, (1H-Pyrrolo[2,3-b]pyridin-3-yl)-(4-trifluoromethoxy-phenyl)-amine]
≤ 10 µM: Fak | Fms | Flt1

c1cc2ccc(Nc3ccc(N4CCCCC4)cc3)nc2[nH]1 [Compound P-1359, (4-Piperidin-1-yl-phenyl)-(1H-pyrrolo[2,3-b]pyridin-6-yl)-amine]
≤ 10 µM: Jnk3 | Fak | Jnk1

COc1cccc(Cc2c[nH]c3ncc(-c4cccc(NS(C)(=O)=O)c4)cc23)c1F [Compound P-1329, N-{3-[3-(2-Fluoro-3-methoxy-benzyl)-1H-pyrrolo[2,3-b]pyridin-5-yl]-phenyl}-methanesulfonamide]
≤ 10 µM: Fak | Fms | FGFR1 | B-Raf V600E | Kit

Fc1cccc(F)c1Cc1c[nH]c2ncccc12 [Compound P-1482, 3-(2,6-Difluoro-benzyl)-1H-pyrrolo[2,3-b]pyridine]
≤ 10 µM: Fak | Fms | FGFR1 | Kit

O=[N+]([O-])c1cccc(Cc2c[nH]c3ncc(-c4cccnc4)cc23)c1 [Compound P-1402, 3-(3-nitro-benzyl)-5-pyridin-3-yl-1H-pyrrolo[2,3-b]pyridine]
≤ 10 µM: Fak | Fms | FGFR1 | Jnk1 | B-Raf V600E | Kit

OCCOc1ccc(F)c(Cc2c[nH]c3ncc(Br)cc23)c1F [Compound P-1392, 2-[3-(5-Bromo-1H-pyrrolo[2,3-b]pyridin-3-ylmethyl)-2,4-difluoro-phenoxy]-ethanol]
≤ 10 µM: Fak | Fms | FGFR1 | B-Raf V600E | Kit

CCCCN(c1ccc(F)c(Cc2c[nH]c3ncc(-c4cccnc4)cc23)c1F)S(=O)(=O)c1ccc(C(F)(F)F)cc1 [Compound P-1401]
≤ 10 µM: Fak

OC(c1ccccc1F)c1c[nH]c2ncc(Br)cc12 (stereo not drawn) [Compound P-1321]
≤ 10 µM: Fak | Fms | FGFR1 | Kit

Cc1[nH]c2ncccc2c1-c1ccc(F)c(Cl)c1 [Compound P-1146]
≤ 10 µM: Fak

Cc1cc(C)cc(-c2c(C)[nH]c3ncccc23)c1 [Compound P-1054]
≤ 10 µM: Fak
